# According to PubChem BioAssay (NCI):
#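 Assay format: 96-well plates, 48-hour exposure. TGI: total growth inhibition.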 Where a SMILES comes first, the peptide text is derived from it. [ ]: non-standard residue; d: D form. The star is where a group is joined. X28 = COC1=CC(=O)N(C(=O)[C@@H](O*)C(C)C)[C@H]1Cc1ccccc1; Bn2Val = CC(C)[C@@H](C(=O)*)N(Cc1ccccc1)Cc1ccccc1; NMeV = CN[C@H](C(=O)O)C(C)C; dNMeA = CN[C@H](C)C(=O)O
# What was measured:
# Test in all cases: NCI tumour cell line growth inhibition, 48 h
# A498 renal = tested on: A498 renal
# ACHN renal = tested on: ACHN renal
# DLD-1 colon = tested on: DLD-1 colon
# DMS 114 small cell lung = tested on: DMS 114 small cell lung
# HOP-92 NSCLC = tested on: HOP-92 NSCLC
# HT29 colon = tested on: HT29 colon
# OVCAR-5 ovarian = tested on: OVCAR-5 ovarian
# SF-295 CNS = tested on: SF-295 CNS
# SK-MEL-5 melanoma = tested on: SK-MEL-5 melanoma
# U251 CNS = tested on: U251 CNS
# PC-3 prostate = tested on: PC-3 prostate
Structure (SMILES),TGI (A498 renal),TGI (ACHN renal),TGI (DLD-1 colon),TGI (DMS 114 small cell lung),TGI (HOP-92 NSCLC),TGI (HT29 colon),TGI (OVCAR-5 ovarian),TGI (SF-295 CNS),TGI (SK-MEL-5 melanoma),TGI (U251 CNS),TGI (PC-3 prostate)
Nc1ncnc2c1sc(=S)n2-c1ccccc1,> 100 µM,> 100 µM,> 100 µM,> 100 µM,> 100 µM,> 100 µM,> 100 µM,> 100 µM,> 100 µM,> 100 µM,
CC(=O)Oc1c2c(c(OC(C)=O)c3c1n(C(C)=O)c1ccccc1n3C(C)=O)n(C(C)=O)c1ccccc1n2C(C)=O,39 µM,25.4 µM,11.8 µM,7.96 µM,,13 µM,,28.9 µM,39 µM,29.5 µM,
Cc1c(OCCCOc2ccc3c(=O)cc(-c4ccccc4)oc3c2C)ccc2c(=O)cc(-c3ccccc3)oc12,> 100 µM,,> 100 µM,> 100 µM,> 100 µM,> 100 µM,> 100 µM,> 100 µM,> 100 µM,> 100 µM,
C[N+](C)=c1ccc2nc3c(ccc4ccccc43)oc-2c1,32.6 µM,26.7 µM,21.1 µM,54.4 µM,32.7 µM,29.6 µM,37 µM,29 µM,27.5 µM,29.5 µM,
CO[C@H]1CC[C@]2(C)C3=CC[C@@]4(C)C(CC[C@@H]4C(C)CC[C@@H](C)C(C)C)C(=CCC2C1)O3 (stereo partly drawn),> 25 µM,> 25 µM,> 25 µM,> 25 µM,> 25 µM,> 25 µM,> 25 µM,> 25 µM,> 25 µM,> 25 µM,
Brc1c2nc3ccccc3nc2n2ccc3ccccc3c12,,> 100 µM,> 100 µM,> 100 µM,> 100 µM,,> 100 µM,,> 100 µM,> 100 µM,
C[N+](C)(C)CCOC(=O)/C=C/c1cnc[nH]1,> 500 µM,,> 500 µM,> 500 µM,> 500 µM,> 500 µM,> 500 µM,> 500 µM,> 500 µM,> 500 µM,
C=C1C2C[C@@H]3OC4CC5O[C@]6(CC5OC4C(C)C3OC(=O)CC3CC[C@@H]4OC5C7OC8C[C@](CCC9CC(=C)[C@H](CCC(C[C@H]1C)O2)O9)(OC7C4O3)O[C@@H]85)C[C@@H]1O[C@@]2(CC(C)[C@@H]3OC(CC(=O)CCO)C(O)C[C@@H]3O2)CC(C)[C@@H]1O6 (stereo partly drawn),,1.71 µM,1.24 µM,,0.0017 µM,,0.562 µM,< 0.001 µM,0.00259 µM,,
Cc1c(-c2coc(-c3ccccc3)n2)c(=O)n(-c2ccccc2)n1C,> 100 µM,> 100 µM,> 100 µM,> 100 µM,> 100 µM,> 100 µM,> 100 µM,> 100 µM,61 µM,> 100 µM,
Nc1ncnc2c1ncn2C1OC(CO)C(O)C1NS(=O)(=O)c1ccccc1 (stereo not drawn),> 100 µM,> 100 µM,,,> 100 µM,> 100 µM,> 100 µM,> 100 µM,> 100 µM,> 100 µM,> 100 µM
O=C(/C=C/c1ccc(OCc2ccccc2)cc1)NCc1ccc(C(=O)NCc2ccccc2)cc1,> 100 µM,> 100 µM,,,> 100 µM,> 100 µM,> 100 µM,> 100 µM,> 100 µM,> 100 µM,> 100 µM
COC(=O)CCCC1(CCCC(=O)OC)CCCCCCCCC(CCCC(=O)OC)(CCCC(=O)OC)C(=O)C1=O,> 100 µM,> 100 µM,,,39 µM,> 100 µM,> 100 µM,> 100 µM,> 100 µM,40.7 µM,53.5 µM
COCCOC(C)C(=O)C(O)S(=O)(=O)O (stereo not drawn),> 100 µM,> 100 µM,,,> 100 µM,> 100 µM,> 100 µM,> 100 µM,> 100 µM,> 100 µM,> 100 µM
NC(=S)Nc1ccc2c(c1)oc1ccccc12,> 100 µM,> 100 µM,,,> 100 µM,> 100 µM,> 100 µM,> 100 µM,> 100 µM,> 100 µM,> 100 µM
Oc1cc(Cl)cc2cc(Cl)cnc12,34.5 µM,21.3 µM,,,74.1 µM,> 100 µM,> 100 µM,88.7 µM,53.3 µM,> 100 µM,> 100 µM
COC1=CC(=O)N(C(=O)[C@@H](OC(=O)[C@@H](C)N(C)C(=O)[C@@H]2CCCN2C(=O)[C@H](C(C)C)N(C)C(=O)[C@@H](NC(=O)[C@H](C(C)C)N(Cc2ccccc2)Cc2ccccc2)C(C)C)C(C)C)[C@H]1Cc1ccccc1 (Bn2Val-V[NMeV]P[dNMeA]-X28),> 100 µM,> 100 µM,,,> 100 µM,> 100 µM,> 100 µM,> 100 µM,> 100 µM,> 100 µM,> 100 µM
CC(C)NCC(O)c1ccc(O)c2ncccc12 (stereo not drawn),> 100 µM,> 100 µM,,,> 100 µM,> 100 µM,> 100 µM,> 100 µM,> 100 µM,> 100 µM,> 100 µM
CNC(=O)c1cc2nc3ccccc3c(=O)n2c2ccccc12,> 10 µM,> 10 µM,,,> 10 µM,> 10 µM,> 10 µM,> 10 µM,> 10 µM,> 10 µM,> 10 µM

Structure (SMILES),TGI (A498 renal),TGI (ACHN renal),TGI (DLD-1 colon),TGI (DMS 114 small cell lung),TGI (HOP-92 NSCLC),TGI (HT29 colon),TGI (OVCAR-5 ovarian),TGI (SF-295 CNS),TGI (SK-MEL-5 melanoma),TGI (U251 CNS),TGI (PC-3 prostate)
C[C@@H](NC(=O)[C@@H]1C[C@]1(C)CO)c1cccc2ccccc12,> 100 µM,> 100 µM,,,> 100 µM,> 100 µM,> 100 µM,> 100 µM,> 100 µM,> 100 µM,> 100 µM
CCOC(=O)C1(C#N)C2(C#N)C(N)=NC(ON=C(C)C)(ON=C(C)C)C12C#N (stereo not drawn),> 100 µM,> 100 µM,,,> 100 µM,> 100 µM,> 100 µM,> 100 µM,> 100 µM,> 100 µM,> 100 µM
N#C/C(=C/n1c(=S)[nH]c2ccccc21)C(N)=O,> 100 µM,> 100 µM,,,> 100 µM,> 100 µM,> 100 µM,> 100 µM,> 100 µM,> 100 µM,> 100 µM
C=C1C(=O)[C@]23C[C@H]1C[C@@H](O)[C@H]2[C@]1(COC3=O)[C@@H](OC(C)=O)CC[C@@](C)(COC(C)=O)[C@H]1C=O,> 50 µM,> 50 µM,,,22.3 µM,> 50 µM,> 50 µM,> 50 µM,> 50 µM,> 50 µM,> 50 µM
COc1ccc(OC)c(NC2=NCCO2)c1,> 100 µM,> 100 µM,,,77.4 µM,> 100 µM,> 100 µM,> 100 µM,> 100 µM,> 100 µM,> 100 µM
C/C=C/c1cc2c(c(=O)o1)C(=O)[C@@H](O)[C@H](C)O2,16.9 µM,,20 µM,19.1 µM,31.2 µM,44.6 µM,31.1 µM,41.6 µM,29.4 µM,32.9 µM,
O=C(NC12CC3CC(CC(C3)C1)C2)C(=O)c1c[nH]c2ccc(Br)cc12,,> 100 µM,89 µM,> 100 µM,48.1 µM,14.4 µM,> 100 µM,19.8 µM,> 100 µM,49.2 µM,
CC(C)(C)c1cc(C(=O)C2Cc3ccccc3C(=O)O2)cc(C(C)(C)C)c1O (stereo not drawn),26.7 µM,40.3 µM,,,45.3 µM,35.5 µM,31.8 µM,35.1 µM,25.1 µM,22.2 µM,28.2 µM
COc1cc(NS(C)(=O)=O)ccc1NCc1cnc2ccc3[nH]cccc3c12,59.2 µM,69.2 µM,,,93.9 µM,73.9 µM,50.4 µM,53.4 µM,25.2 µM,> 81.2 µM,42.3 µM
Cc1nc2ccccc2c(=O)n1NC(=O)c1ccccc1[N+](=O)[O-],> 100 µM,> 100 µM,,,> 100 µM,> 100 µM,> 100 µM,> 100 µM,> 100 µM,> 100 µM,> 100 µM
N/C(=N\NC(=O)c1nc2ccccc2s1)c1ccccn1,36.1 µM,16.5 µM,,,> 100 µM,50.7 µM,65.7 µM,> 100 µM,21.3 µM,> 60.9 µM,> 100 µM
Nc1ncnc2c1ncn2CCCC(c1ccccc1)P(=O)(O)O (stereo not drawn),> 100 µM,> 100 µM,> 100 µM,> 100 µM,,> 100 µM,> 100 µM,> 100 µM,> 100 µM,> 100 µM,
COc1cc(OCc2nc3cc(C(F)(F)F)ccc3nc2-c2ccccc2)cc(OC)c1OC,> 100 µM,> 100 µM,,,> 100 µM,> 100 µM,> 100 µM,> 100 µM,> 100 µM,> 100 µM,> 100 µM
CCCCCCCCCCCCCCCCNCC(O)CN (stereo not drawn),41.9 µM,,3.66 µM,21 µM,9.36 µM,4.44 µM,19.7 µM,6.93 µM,27 µM,6.26 µM,
Cc1ccc(/C(O)=C/c2nc3cccnc3[nH]c2=O)cc1,> 100 µM,> 100 µM,,,> 100 µM,> 100 µM,> 100 µM,> 100 µM,> 100 µM,> 100 µM,> 100 µM
c1ccc(C(c2cccc3c2ccc2ccccc23)C(c2ccccc2)c2cccc3c2ccc2ccccc23)cc1 (stereo not drawn),> 100 µM,> 100 µM,,,> 100 µM,> 100 µM,> 100 µM,> 100 µM,> 100 µM,> 100 µM,> 100 µM
C[C@]12C(=O)C=CCC1=CC[C@@H]1[C@@H]2[C@H]2CC3(O)C(=O)O[C@@]4(C)[C@H]5C[C@@]6(C)[C@@H]7[C@@]2(O)[C@]1(OC[C@H]6C(=O)O5)O[C@]734 (stereo partly drawn),> 100 µM,> 100 µM,,,> 100 µM,> 100 µM,> 100 µM,> 100 µM,> 100 µM,> 100 µM,> 100 µM
